Test results from patent publication US8889713B1, “N-substituted tetrahydroisoquinoline benzamides/benzene sulfonamides as anti-cancer agents” (Florida A&M University, priority 2013, dated 2014).
Values after ≈ are worked out from the molar mass of the structure shown.

Tests used:
Assay type in all cases: cell-based
[1] = tested on: MDA-MB-231 estrogen receptor-negative breast cancer cell line; test: […]-GLO luminescent cell viability assay, MDA-MB-231; conditions: Homo sapiens, MDA-MB-231, 72 h at 37° C., 5000 cells/well
Method: (§1) All the compounds were tested in the three cell lines. Different concentrations of compounds, ranging from about 0.01 nM to about 100,000 nM were delivered to […] cells per well, which were then incubated for three days at 37° C., followed by CTG assay.
(§2) In this assay, the number of viable cells in culture is determined based on the quantification of ATP present, which signals the presence of metabolically active cells. Damaged cells are not detected as the ATP leaked from these cells is quickly consumed by ATPases that are also released upon damage). The amount of ATP is determined using a system based on luciferase and D-luciferin resulting in light generation.
(§3) The cell lines were plated in 13, 96 well plates at a density of 5000 cells/well in total volumes of 50 μL in phenol-red free medium and incubated for overnight.
(§4) 25 μL of 40 nM estradiol should be added to all appropriate wells on the plate. […] 25 μL of stocks (containing the compounds to be tested, DMSO and phenol-red free medium) were added to cells and medium already on plate. 50 μL of medium were added to media wells, and 50 μL of mix (contain 32 mL DMSO+768 mL phenol-red free medium) to all vehicle control wells.
(§5) Luminescence results were read on TriLux Luminometer. The luminescent signal is proportional to the number of active cells present in culture. […] As a consequence, the number of metabolically active cells can be directly derived from the luminescent signal using a specific calibration curve. Data were expressed as percentage of untreated control (i.e. treatment value-blank/vehicle value blank), mean±SE for three replications.

[2] = tested on: MCF-7 estrogen receptor-positive breast cancer cells; test: […]-GLO luminescent cell viability assay, MCF-7; conditions: Homo sapiens, MCF7, MCF-7, 72 h at 37° C., 5000 cells/well
Method: as §1, §2, §3, §4, §5

[3] = tested on: Ishikawa cells; test: […]-GLO luminescent cell viability assay, Ishikawa; conditions: Homo sapiens, 72 h at 37° C., 5000 cells/well
Method: as §1, §2, §3, §4, §5

| Compound | IC50 [1] [mg/L] | IC50 [2] [mg/L] | IC50 [3] [mg/L] |
| --- | --- | --- | --- |
| CCc1ccc(C(=O)NN2CCc3c(Br)ccc(Br)c3C2)cc1 [Redda-EVK-I-079, N-(5,8-Dibromo-3,4-dihydroisoquinolin-2(1H)-yl)-4-ethylbenzamide] | 1.71 (≈ 3.9 µM) | 2.34 (≈ 5.34 µM) | 0.84 (≈ 1.92 µM) |
| CCc1ccc(C(=O)NN2CCc3ccccc3C2)cc1 [Redda-GM-3-121, N-(3,4-Dihydroisoquinolin-2(1H)-yl)-4-ethylbenzamide] | 0.37 (≈ 1.32 µM) | 0.43 (≈ 1.53 µM) | 0.01 (≈ 0.0357 µM) |
| CCCc1ccc(C(=O)NN2CCc3ccccc3C2)cc1 [Redda-GM-3-122, N-(3,4-Dihydroxyisoquinolin-2(1H)-yl)-4-propylbenzamide] | 3.26 (≈ 11.1 µM) | 3.71 (≈ 12.6 µM) | 0.75 (≈ 2.55 µM) |
| O=C(NN1CCc2ccccc2C1)c1ccc(C(F)(F)F)cc1 [Redda-GM-3-143, N-(3,4-Dihydroisoquinolin-2-(1H)-yl)-4-(trifluoromethyl)benzamide] | 4.85 (≈ 15.1 µM) | 3.15 (≈ 9.83 µM) | 0.5 (≈ 1.56 µM) |
| CCCCc1ccc(C(=O)NN2CCc3ccccc3C2)cc1 [Redda-GM-3-156, 4-Butyl-N-(3,4-dihydrozyisoquinolin-2(1H)-yl)benzamide] | 7.03 (≈ 22.8 µM) | 3.05 (≈ 9.89 µM) | 0.96 (≈ 3.11 µM) |
| CCc1ccc(C(=O)NN2CCc3ccc(O)cc3C2)cc1 [Redda-GM-4-53, 4-Ethyl-N-(7-hydroxy-3,4-dihydroisoquinolin-2-(1H)-yl)benzamide] | 0.13 (≈ 0.439 µM) | 0.2 (≈ 0.675 µM) | 0.08 (≈ 0.27 µM) |
| CCc1ccc(C(=O)NN2CCc3c(Br)cccc3C2)cc1 [Redda-GM-4-62, N-(5-Bromo-3,4-dihyroisoquinolin-2(1H)-yl)-4-ethylbenzamide] | 6.01 (≈ 16.7 µM) | 3.5 (≈ 9.74 µM) | 1.15 (≈ 3.2 µM) |

Further lines, with some results ahead:

| IC50 [1] [mg/L] | IC50 [2] [mg/L] | Compound | IC50 [3] [mg/L] |
| --- | --- | --- | --- |
| 10.5 (≈ 33.7 µM) | 7.38 (≈ 23.8 µM) | CCc1ccc(C(=O)NN2CCc3c(cccc3OC)C2)cc1 [Redda-EVK-I-062, 4-Ethyl-N-(5-methoxy-3,4-dihydroisoquinolin-2(1H)-yl)benzamide] | 6.34 (≈ 20.4 µM) |
| 0.23 (≈ 0.741 µM) | 0.25 (≈ 0.805 µM) | CCc1ccc(C(=O)NN2CCc3ccc(OC)cc3C2)cc1 [Redda-EVK-I-074, 4-Ethyl-N-(7-methoxy-3,4-dihydroisoquinolin-2(1H)-yl)benzamide] | 0.11 (≈ 0.354 µM) |
| 4.34 (≈ 13.1 µM) | 0.7 (≈ 2.11 µM) | O=C(NN1CCc2ccccc2C1)c1ccc(Br)cc1 [Redda-GM-3-135, 4-Bromo-N-(3,4-dihydroisoquinolin-2(1H)-yl)benzamide] | 0.02 (≈ 0.0604 µM) |
| 13.1 (≈ 42.4 µM) | 15 (≈ 48.5 µM) | O=C(NN1CCc2ccccc2C1)c1nc2ccccc2s1 [Redda-GM-3-177, N-(3,4-Dihydroisoquinolin-2-(1H)-yl)benzo[d]thiazole-2-carboxamide] | 8.98 (≈ 29 µM) |
| 4.7 (≈ 14.5 µM) | 2.3 (≈ 7.09 µM) | CC(C)(C)c1ccc(C(=O)NN2CCc3ccc(O)cc3C2)cc1 [Redda-GM-4-40, 4-(tert-Butyl)-N-(7-hydroxy-3,4-dihydroisoquinolin-2(1H)-yl)benzamide] | 0.95 (≈ 2.93 µM) |
